{"source": "paper PMC7402526", "about": "“An in vitro quantitative systems pharmacology approach for deconvolving mechanisms of drug-induced, multilineage cytopenias” (PLoS Computational Biology, 2020)", "type_in_all_cases": "cell-based, human", "key": {"[1]": {"tested_on": "early erythroid cells (Eryth I)", "test": "MLTA, ErythI: concentration-response and QSP model fit", "details": "Homo sapiens, 144 h", "outline": "(§1)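 Drug was added at time 0 to thawed human bone marrow CD34+ cells in SFEM II plus a cytokine cocktail. After 6 days at 37°C, subsets were counted by surface-marker flow with TruCount beads. Vehicle-normalized, donor-pooled data then fed an Emax model separating anti-proliferative from cell-killing effects.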"}, "[2]": {"tested_on": "late erythroid cells (Eryth II)", "test": "MLTA, ErythII: concentration-response and QSP model fit", "details": "Homo sapiens, 144 h", "outline": "(§2)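 Parameters come from fitting an Emax-based QSP model, with L1 regularization and Emax ranging 0–2, to vehicle-normalized, bead-corrected flow cytometry counts. Counts came from human bone marrow CD34+ cells treated from day 0 through a 6-day multi-lineage cytokine culture in SFEM II, using 2–7 donors per drug.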"}, "[3]": {"tested_on": "granulocyte progenitor (Gran-lin prog)", "test": "MLTA, GranP: concentration-response and QSP model fit", "details": "Homo sapiens, 144 h", "outline": "as §1"}, "MK cells (MK-lin)": {"tested_on": "MK cells (MK-lin)", "test": "MLTA, MK: concentration-response and QSP model fit", "details": "Homo sapiens, 144 h", "outline": "as §2"}, "[4]": {"tested_on": "neutrophils (neutrophil-lin)", "test": "MLTA, Neut: concentration-response and QSP model fit", "details": "Homo sapiens, Neutrophil, 144 h", "outline": "as §2"}, "[5]": {"tested_on": "hematopoietic stem cells (HSCs)", "test": "Multi-lineage toxicity assay (MLTA), HSCs: concentration-response and QSP model fit", "set-up": "EmaxAP,HSC / EmaxT,HSC / Emax_drug_HSC: unitless, 0–2; ≤1 anti-proliferative, >1 adds cell killing", "outline": "as §2"}, "[6]": {"tested_on": "multi-potent progenitors (MPPs)", "test": "MLTA, MPPs: concentration-response and QSP model fit", "details": "Homo sapiens, 144 h", "outline": "as §2"}, "[7]": {"details": "QSP model fit of 6-day MLTA data"}}, "data": [{"smiles": "CN(C)C(=O)c1cc2cnc(Nc3ccc(N4CCNCC4)cn3)nc2n1C1CCCC1", "note": "[ribociclib]", "values": [{"measurement": "activity at 0.0002 µM", "setting": "[1]; dose 0.2 nM, 6 days, normalized to vehicle control, read-out: ErythI normalized cell count", "result": 101, "unit": "%"}, {"measurement": "activity at 0.001 µM", "setting": "[1]; dose 1 nM, 6 days, normalized to vehicle control, read-out: ErythI normalized cell count", "result": 102, "unit": "%"}, {"measurement": "activity at 0.005 µM", "setting": "[1]; dose 5 nM, 6 days, normalized to vehicle control, read-out: ErythI normalized cell count", "result": 108, "unit": "%"}, {"measurement": "activity at 0.025 µM", "setting": "[1]; dose 25 nM, 6 days, normalized to vehicle control, read-out: ErythI normalized cell count", "result": 85.8, "unit": "%"}, {"measurement": "activity at 0.1 µM", "setting": "[1]; dose 100 nM, 6 days, normalized to vehicle control, read-out: ErythI normalized cell count", "result": 69, "unit": "%"}, {"measurement": "activity at 0.5 µM", "setting": "[1]; dose 500 nM, 6 days, normalized to vehicle control, read-out: ErythI normalized cell count", "result": 31.2, "unit": "%"}, {"measurement": "activity at 2.5 µM", "setting": "[1]; dose 2500 nM, 6 days, normalized to vehicle control, read-out: ErythI normalized cell count", "result": 9.42, "unit": "%"}, {"measurement": "Emax", "setting": "[1]; parameter from QSP model fitting, read-out: Emax_drug_ErythroidI", "result": 0.05, "unit": "%"}, {"measurement": "EC50", "setting": "[2]; QSP model fit of 6-day MLTA data, read-out: EC50ErythII", "result": 222, "unit": "nM"}, {"measurement": "activity at 0.0002 µM", "setting": "[2]; dose 0.2 nM, 6 days, normalized to vehicle control, read-out: ErythII normalized cell count", "result": 84.3, "unit": "%"}, {"measurement": "activity at 0.001 µM", "setting": "[2]; dose 1 nM, 6 days, normalized to vehicle control, read-out: ErythII normalized cell count", "result": 97.7, "unit": "%"}, {"measurement": "activity at 0.005 µM", "setting": "[2]; dose 5 nM, 6 days, normalized to vehicle control, read-out: ErythII normalized cell count", "result": 113, "unit": "%"}, {"measurement": "activity at 0.025 µM", "setting": "[2]; dose 25 nM, 6 days, normalized to vehicle control, read-out: ErythII normalized cell count", "result": 81.4, "unit": "%"}, {"measurement": "activity at 0.1 µM", "setting": "[2]; dose 100 nM, 6 days, normalized to vehicle control, read-out: ErythII normalized cell count", "result": 79.8, "unit": "%"}, {"measurement": "activity at 0.5 µM", "setting": "[2]; dose 500 nM, 6 days, normalized to vehicle control, read-out: ErythII normalized cell count", "result": 66.7, "unit": "%"}, {"measurement": "activity at 2.5 µM", "setting": "[2]; dose 2500 nM, 6 days, normalized to vehicle control, read-out: ErythII normalized cell count", "result": 33.6, "unit": "%"}, {"measurement": "Emax", "setting": "[2]; parameter from QSP model fitting, read-out: Emax_drug_ErythroidII", "result": 10.8, "unit": "%"}, {"measurement": "EC50", "setting": "[3]; QSP model fit of 6-day MLTA data, read-out: EC50GranP", "result": 21.4, "unit": "nM"}, {"measurement": "activity at 0.0002 µM", "setting": "[3]; dose 0.2 nM, 6 days, normalized to vehicle control, read-out: GranPs normalized cell count", "result": 87.1, "unit": "%"}, {"measurement": "activity at 0.001 µM", "setting": "[3]; dose 1 nM, 6 days, normalized to vehicle control, read-out: GranPs normalized cell count", "result": 105, "unit": "%"}, {"measurement": "activity at 0.005 µM", "setting": "[3]; dose 5 nM, 6 days, normalized to vehicle control, read-out: GranPs normalized cell count", "result": 104, "unit": "%"}, {"measurement": "activity at 0.025 µM", "setting": "[3]; dose 25 nM, 6 days, normalized to vehicle control, read-out: GranPs normalized cell count", "result": 81.3, "unit": "%"}, {"measurement": "activity at 0.1 µM", "setting": "[3]; dose 100 nM, 6 days, normalized to vehicle control, read-out: GranPs normalized cell count", "result": 70.3, "unit": "%"}, {"measurement": "activity at 0.5 µM", "setting": "[3]; dose 500 nM, 6 days, normalized to vehicle control, read-out: GranPs normalized cell count", "result": 34.4, "unit": "%"}, {"measurement": "activity at 2.5 µM", "setting": "[3]; dose 2500 nM, 6 days, normalized to vehicle control, read-out: GranPs normalized cell count", "result": 10.8, "unit": "%"}, {"measurement": "Emax", "setting": "[3]; parameter from QSP model fitting, read-out: Emax_drug_GranP", "result": 6.43, "unit": "%"}, {"measurement": "EC50", "setting": "MK cells (MK-lin); [7]", "result": 2040, "unit": "nM"}, {"measurement": "activity at 0.0002 µM", "setting": "MK cells (MK-lin); dose 0.2 nM, 6 days, normalized to vehicle control, read-out: MK normalized cell count", "result": 102, "unit": "%"}, {"measurement": "activity at 0.001 µM", "setting": "MK cells (MK-lin); dose 1 nM, 6 days, normalized to vehicle control, read-out: MK normalized cell count", "result": 98.3, "unit": "%"}, {"measurement": "activity at 0.005 µM", "setting": "MK cells (MK-lin); dose 5 nM, 6 days, normalized to vehicle control, read-out: MK normalized cell count", "result": 91.7, "unit": "%"}, {"measurement": "activity at 0.025 µM", "setting": "MK cells (MK-lin); dose 25 nM, 6 days, normalized to vehicle control, read-out: MK normalized cell count", "result": 83.6, "unit": "%"}, {"measurement": "activity at 0.1 µM", "setting": "MK cells (MK-lin); dose 100 nM, 6 days, normalized to vehicle control, read-out: MK normalized cell count", "result": 101, "unit": "%"}, {"measurement": "activity at 0.5 µM", "setting": "MK cells (MK-lin); dose 500 nM, 6 days, normalized to vehicle control, read-out: MK normalized cell count", "result": 64.4, "unit": "%"}, {"measurement": "activity at 2.5 µM", "setting": "MK cells (MK-lin); dose 2500 nM, 6 days, normalized to vehicle control, read-out: MK normalized cell count", "result": 27.7, "unit": "%"}, {"measurement": "Emax", "setting": "MK cells (MK-lin); parameter from QSP model fitting, read-out: Emax_drug_MK", "result": 4.81, "unit": "%"}, {"measurement": "EC50", "setting": "[4]; [7]", "result": 178, "unit": "nM"}, {"measurement": "activity at 0.0002 µM", "setting": "[4]; dose 0.2 nM, 6 days, normalized to vehicle control, read-out: Neut normalized cell count", "result": 77.2, "unit": "%"}, {"measurement": "activity at 0.001 µM", "setting": "[4]; dose 1 nM, 6 days, normalized to vehicle control, read-out: Neut normalized cell count", "result": 83.1, "unit": "%"}, {"measurement": "activity at 0.005 µM", "setting": "[4]; dose 5 nM, 6 days, normalized to vehicle control, read-out: Neut normalized cell count", "result": 96.4, "unit": "%"}, {"measurement": "activity at 0.025 µM", "setting": "[4]; dose 25 nM, 6 days, normalized to vehicle control, read-out: Neut normalized cell count", "result": 65.4, "unit": "%"}, {"measurement": "activity at 0.1 µM", "setting": "[4]; dose 100 nM, 6 days, normalized to vehicle control, read-out: Neut normalized cell count", "result": 52.7, "unit": "%"}, {"measurement": "activity at 0.5 µM", "setting": "[4]; dose 500 nM, 6 days, normalized to vehicle control, read-out: Neut normalized cell count", "result": 25.1, "unit": "%"}, {"measurement": "activity at 2.5 µM", "setting": "[4]; dose 2500 nM, 6 days, normalized to vehicle control, read-out: Neut normalized cell count", "result": 4.85, "unit": "%"}, {"measurement": "Emax", "setting": "[4]; parameter from QSP model fitting, read-out: Emax_drug_Neut", "result": 13.9, "unit": "%"}, {"measurement": "EC50", "setting": "[5]; Homo sapiens, Hematopoietic stem cell, 144 h, QSP model fit of 6-day MLTA data", "result": 373, "unit": "nM"}, {"measurement": "activity at 0.0002 µM", "setting": "[5]; Homo sapiens, Hematopoietic stem cell, 144 h, dose 0.2 nM, 6 days, normalized to vehicle control, read-out: HSCs normalized cell count", "result": 90.3, "unit": "%"}, {"measurement": "activity at 0.001 µM", "setting": "[5]; Homo sapiens, Hematopoietic stem cell, 144 h, dose 1 nM, 6 days, normalized to vehicle control, read-out: HSCs normalized cell count", "result": 93.9, "unit": "%"}, {"measurement": "activity at 0.005 µM", "setting": "[5]; Homo sapiens, Hematopoietic stem cell, 144 h, dose 5 nM, 6 days, normalized to vehicle control, read-out: HSCs normalized cell count", "result": 107, "unit": "%"}, {"measurement": "activity at 0.025 µM", "setting": "[5]; Homo sapiens, Hematopoietic stem cell, 144 h, dose 25 nM, 6 days, normalized to vehicle control, read-out: HSCs normalized cell count", "result": 98.7, "unit": "%"}, {"measurement": "activity at 0.1 µM", "setting": "[5]; Homo sapiens, Hematopoietic stem cell, 144 h, dose 100 nM, 6 days, normalized to vehicle control, read-out: HSCs normalized cell count", "result": 89.4, "unit": "%"}, {"measurement": "activity at 0.5 µM", "setting": "[5]; Homo sapiens, Hematopoietic stem cell, 144 h, dose 500 nM, 6 days, normalized to vehicle control, read-out: HSCs normalized cell count", "result": 67.7, "unit": "%"}, {"measurement": "activity at 2.5 µM", "setting": "[5]; Homo sapiens, Hematopoietic stem cell, 144 h, dose 2500 nM, 6 days, normalized to vehicle control, read-out: HSCs normalized cell count", "result": 35.2, "unit": "%"}, {"measurement": "Emax", "setting": "[5]; Homo sapiens, Hematopoietic stem cell, 144 h, parameter from QSP model fitting, read-out: Emax_drug_HSC", "result": 48.9, "unit": "%"}, {"measurement": "EmaxAP,HSC", "setting": "[5]; anti-proliferation component, min(1, EmaxT)", "result": 0.489}, {"measurement": "activity at 0.0002 µM", "setting": "[6]; dose 0.2 nM, 6 days, normalized to vehicle control, read-out: MPPs normalized cell count", "result": 81.4, "unit": "%"}, {"measurement": "activity at 0.001 µM", "setting": "[6]; dose 1 nM, 6 days, normalized to vehicle control, read-out: MPPs normalized cell count", "result": 91.9, "unit": "%"}, {"measurement": "activity at 0.005 µM", "setting": "[6]; dose 5 nM, 6 days, normalized to vehicle control, read-out: MPPs normalized cell count", "result": 83.8, "unit": "%"}, {"measurement": "activity at 0.025 µM", "setting": "[6]; dose 25 nM, 6 days, normalized to vehicle control, read-out: MPPs normalized cell count", "result": 63.7, "unit": "%"}, {"measurement": "activity at 0.1 µM", "setting": "[6]; dose 100 nM, 6 days, normalized to vehicle control, read-out: MPPs normalized cell count", "result": 46.9, "unit": "%"}, {"measurement": "activity at 0.5 µM", "setting": "[6]; dose 500 nM, 6 days, normalized to vehicle control, read-out: MPPs normalized cell count", "result": 28.4, "unit": "%"}, {"measurement": "activity at 2.5 µM", "setting": "[6]; dose 2500 nM, 6 days, normalized to vehicle control, read-out: MPPs normalized cell count", "result": 16.9, "unit": "%"}, {"measurement": "Emax", "setting": "[6]; parameter from QSP model fitting, read-out: Emax_drug_MPP", "result": 0.0237, "unit": "%"}]}]}
